Where “and” joins values, the source holds several entries; their conditions need not be identical. Equal values may be shown once.
How the values were obtained:
lymphocyte = conditions: in vitro; cited from earlier work
peripheral BZ receptors = peripheral BZ receptors (Homo sapiens, UniProt P30536); conditions: cited from earlier work
IL-2 production = conditions: in vitro; cited from earlier work
[1] = test system: LTB4-induced dermal inflammation; test: Rabbit model of LTB4-induced dermal inflammation, histopathology of intradermal challenge sites; type: in vivo, New Zealand White Rabbits; design: key to Inflammation score / Edema score: 0=normal; T=trace; 1=minimal; 2=mild; 3=moderate; 4=marked; conditions: test article IP 60 mg/kg (dexamethasone 0.5 mg/kg); for Inflammation score / Edema score: 4 hr after challenge; for Histopathology finding: reduction of inflammation and edema: summary in words
Experimental: Test compounds were prepared as follows. The vehicle was first prepared by dissolving […] of hydroxypropylmethylcellulose 2910 (HPMC)(Sigma Chemical, St. Louis, Mo.) in 50 mL of 0.9% saline to yield a concentration of 2% HPMC. The three test articles, (R)-, (S)- and racemic tofisopam, were formulated by adding 1 g of each test article to 10 mL of vehicle.
On Day 0, the rabbits were sedated with ketamine/xylazine (35/5 mg/kg, s.c.) and an area of approximately 8×14 cm on the back was closely and carefully clipped to expose the skin, but not inflame or otherwise damage the epithelium. A grid of ten squares each approximately 2.5×2.5 cm was drawn on each animal's back using an indelible marker. The animals were then dosed intraperitoneally with the appropriate test article corresponding to the group. Thirty minutes after dosing with test or control article, the animals were challenged intradermally with the LTB4 or LTB4-aminopropamide (LTB4-AP, a synthetic LTB4 agonist) in the appropriate site as shown in Table 4. Each injection site was marked with an indelible marker in order to identify the exact location of the intradermal injection site. Sixty minutes after challenge, the animals were treated again with tofisopam or control articles. The animals were sacrificed 4 hrs. after challenge, and the intradermal injection sites were excised, fixed in 10% neutral buffered formalin (NBF), and submitted for histopathology. H&E-stained sections were read by a board-certified veterinary pathologist using light microscopy.
All animals were sacrificed 4 hr after challenge. The intradermal challenge sites were excised, placed on unique cardboard squares, fixed in 10% NBF, and submitted for histopathology. The skin sections included the epidermis and the subcutis, down to the back musculature.
The marked skin sections were fixed for at least 48 hours on small cardboard squares. At gross trimming, three levels were cut through marked skin region in order to assure that the injection sites is brought into the plane of section. The skins were gross trimmed, processed by dehydration, embedded in paraffin, sectioned at 3-5 μm, and stained with hematoxylin and eosin.
The tissues were evaluated histopathologically via light microscopy by a board-certified veterinary pathologist. Initially, the identity of the slides was masked in order to perform the initial evaluation and rank the slides. The slides were then unmasked and there was a careful assessment of the lesions and careful comparison of the tofisopam-treated sites to the vehicle and positive control tissues. The lesions were graded based upon the degree of inflammation and the degree of edema. The severity of the inflammation and edema was keyed as follows: 0=normal; T=trace; 1=minimal; 2=mild; 3=moderate; 4=marked.

central BZ receptors = conditions: cited from earlier work
[2] = injection site: LTB4 2000 ng, listed as (R,S)-tofisopam
[3] = injection site: LTB-ap 2000 ng, listed as (R,S)-tofisopam

peripheral BZ receptors, sequence (P30536 whole entry): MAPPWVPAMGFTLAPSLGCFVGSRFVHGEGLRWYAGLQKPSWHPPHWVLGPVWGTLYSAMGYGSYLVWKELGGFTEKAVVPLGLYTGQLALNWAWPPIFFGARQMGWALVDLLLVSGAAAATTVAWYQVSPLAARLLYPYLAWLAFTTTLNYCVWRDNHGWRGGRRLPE

Structure (SMILES) | Inflammation score ([1]; injection site: LTB4 500 ng) | Edema score ([1]; injection site: LTB4 1000 ng) | Inflammation score ([1]; injection site: LTB-ap 500 ng) | Edema score ([1]; injection site: LTB-ap 1000 ng) | Inflammation score ([1]; injection site: LTB-ap 1000 ng) | Inflammation score ([1]; injection site: Vehicle 0 ng) | Histopathology finding: reduction of inflammation and edema [1] | Edema score ([1]; injection site: LTB4 500 ng) | Edema score ([1]; injection site: LTB4 2000 ng) | Edema score ([1]; injection site: LTB-ap 500 ng) | Edema score ([1]; injection site: LTB-ap 2000 ng) | Edema score ([1]; injection site: Vehicle 0 ng) | also measured
CCC1C(C)=NN=C(c2ccc(OC)c(OC)c2)c2cc(OC)c(OC)cc21 (racemic) [Racemic tofisopam, Racemic-1-(3,4-dimethoxyphenyl)-4-methyl-5-ethyl-7,8-dimethoxy-5H-2,3-benzodiazepine] | 2 | 3 | 2 | 3 | 3 | 1 | no meaningful reduction in the inflammation and edema |  |  |  |  |  | Mitogen-induced lymphocyte proliferation (lymphocyte): enhances; Binding to peripheral BZ receptors (peripheral BZ receptors): binds only weakly; IL-2 production (IL-2 production): enhances; Edema score ([1]; injection site: LTB4 500 ng, listed as (R,S)-tofisopam): 2 and 3; Inflammation score ([1]; injection site: LTB4 1000 ng, listed as (R,S)-tofisopam): 3 and 2; Edema score [1, 2]: 2 and 1 and 3; Inflammation score [1, 2]: 2 and 1 and 3; Edema score ([1]; injection site: LTB-ap 500 ng, listed as (R,S)-tofisopam): 2 and 3; Edema score [1, 3]: 2 and 1 and 3; Inflammation score [1, 3]: 2 and 1; Edema score ([1]; injection site: Vehicle 0 ng, listed as (R,S)-tofisopam): 2 and 1; Interaction with central BZ receptors (central BZ receptors): does not interact
CC[C@H]1C(C)=NN=C(c2ccc(OC)c(OC)c2)c2cc(OC)c(OC)cc21 [(R)-tofisopam, (R)-1-(3,4-dimethoxyphenyl)-4-methyl-5-ethyl-7,8-dimethoxy-5H-2,3-benzodiazepine] | 1 | 2 and 3 | 1 | 2 and 3 | 1 and 2 | 0 and 1 | meaningful reduction in the severity of the inflammatory cell infiltration and less edema | 1 and 3 | 2 and 3 | 1 and 3 | 2 and 3 and 1 | 0 and 1 and 2 | Inflammation score ([1]; injection site: LTB4 1000 ng): 1 and 2; Inflammation score ([1]; injection site: LTB4 2000 ng): 1-2 and 1; Inflammation score ([1]; injection site: LTB-ap 2000 ng): 1 and 2
CC[C@@H]1C(C)=NN=C(c2ccc(OC)c(OC)c2)c2cc(OC)c(OC)cc21 [(S)-tofisopam, (S)-1-(3,4-dimethoxyphenyl)-4-methyl-5-ethyl-7,8-dimethoxy-5H-2,3-benzodiazepine] | 1 and 2 | 3 and 4 |  | 3 and 4 |  | T and 1 | no meaningful reduction in the inflammation and edema | 2 | 2 and 4 | 2 and 3 | 2 and 1 and 4 | T and 1 | 

Source: patent US6864251B2, “Treatment of LTB4-mediated inflammatory disorders with optically-pure (R)-2,3-benzodiazepines” (Vela Pharmaceuticals, Inc., priority 2002, dated 2005)
